*1 amine or outer side, *2 acyl side, *3 side chain or, on linkers, in order; H or OH if unused. Where a SMILES comes first, the peptide text is derived from it. Bridges are numbered along the chain shown (N, C = ends). [ ]: non-standard residue; d: D form. NHCH2CMe2S = CC(C)(CN[*:1])S[*:2]
Tests used:
[1] = biological target: DOP (Homo sapiens, UniProt P41143); assay: Inhibition of Forskolin-induced cAMP production in HEK-DOP cells (AlphaScreen, DP series); assay type: cell-based; settings: for IC50: Forskolin 50 μM/well, 95% CI in brackets; for IC80: approximate IC80, 'EC anything' protocol
Sequence of DOP (P41143 whole entry): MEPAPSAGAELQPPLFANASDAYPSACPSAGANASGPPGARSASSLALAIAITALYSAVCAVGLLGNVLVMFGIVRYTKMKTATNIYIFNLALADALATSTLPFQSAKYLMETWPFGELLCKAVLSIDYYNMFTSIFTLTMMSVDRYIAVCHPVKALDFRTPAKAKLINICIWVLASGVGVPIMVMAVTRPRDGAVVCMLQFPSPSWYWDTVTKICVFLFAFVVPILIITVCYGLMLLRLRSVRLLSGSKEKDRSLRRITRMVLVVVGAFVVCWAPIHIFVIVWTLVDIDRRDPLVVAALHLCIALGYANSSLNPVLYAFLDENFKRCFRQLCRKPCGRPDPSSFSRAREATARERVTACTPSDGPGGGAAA
Method: DP-7-11 and DP-7-12 were assessed for the ability to inhibit cAMP production in HEK-DOP and HEK KOP cells.
The HEK-293 DOP (HEK-DOP) and HEK-293 KOP (HEK-KOP) cell lines were cultured in a T75 flask, in Dulbeco's Modified Eagle's Medium (DMEM) complete with 10% (v/v) fetal bovine serum (FBS) and 1% (v/v) Geneticin. Cells were incubated in a humidified atmosphere of 37° C. (95% air and 5% CO2). Cells were passaged at 80-90% confluence and media was changed every two days.
Stimulation buffer and Lysis buffer were prepared fresh on the day of each assay. Stimulation buffer contained 19.5 mL Hanks buffered saline solution, Bovine serum albumin (BSA) 0.1% (w/v), 0.5 mM 3-Isobutyl-1-methylxanthine (IBMX) and 5 mM HEPES (4-(2-hydroxyethyl)-1-piperazineethanesulfonic acid). Lysis buffer contained 19 mL Mili-Q H2O, BSA 0.1% (w/v), 0.3% (v/v) 10% Tween-20, and 5 mM HEPES. Both buffers were adjusted to pH 7.4 with NaOH.
The cAMP standard dilution series was prepared from the 50 μM cAMP standard solution provided by the cAMP assay kit. The standard solution was vortexed before being serially diluted to provide a concentration range of 5×10^−6 M to 5×10^−11 M in ½ Log intervals.
For this assay, Forskolin was optimised at 50 μM/well. 25 mM stocks were used to prepare 0.2 mM Forskolin. The concentration of Forskolin prepared was 4 times the required concentration in the well to account for further dilution in the well. 0.1 mM Forskolin solution was then made from this and used to dilute the peptide solutions.
DP-7-11 and DP-7-12 provided in powder form and reconstituted to 10 mM stock solutions and diluted to 1 mM working stocks using Mili-Q H2O. Each peptide solution was serially diluted to give concentrations of 1×10^−6 to 3×10^−7 M with stimulation buffer.
Stimulation buffer was added to the 0.2 mM Forskolin solution in a 1:1 ratio to prepare the Forskolin only treatment solution. This was the positive control. Stimulation buffer was used as the negative control.
Cells were harvested from two T75 flasks on the day of experimentation. Identical protocol was used for both DOP and KOP cells. The cells were first removed from the incubator and washed with Versene®. The cells were then incubated in 2 mL of Versene® at 37° C. for 5 minutes. Following this, the mixture was made up to 5 mL with Versene® in a centrifuge tube. This was centrifuged at 1300 rpm for 2 minutes at 23° C. The supernatant was then decanted and the cells resuspended in 100 μL stimulation buffer for counting. A hemocytometer was used to count the cells. This assay required the concentration of cells to be 13300 cells/μL
This method was used to conduct all cAMP Alphascreen assays. The acceptor bead mixture consisted of acceptor beads and stimulation buffer mixed according to the ratio 1:35 given in the kit. From this, the acceptor beads mixture was used to prepare separate mixtures for the cAMP standard curve and for the treatment wells of the assay. For the treatment wells, the beads were mixed with cells in a 1:1 ratio. For the cAMP standard curve, the beads were mixed with more stimulation buffer in a 1:1 ratio. The donor bead mixture consisted of donor beads, biotinylated cAMP and lysis buffer mixed in the ratio 1:3:300.
The DP series compounds were assayed as follows: The assay was performed using a 96 well ½ area plate. The different cAMP standard solutions (3 μL/well) were plated in duplicate. The different concentrations of drug (3 μL/well), and control solutions (3 μL/well) were plated in triplicate. Following this, the acceptor bead mixture (3 μL/well) was added to the respective sets—either cAMP standard curve or the treatment. This was covered and incubated on the orbital shaker for 30 minutes at room temperature. Then, the donor bead mixture (10 μL/well) was added to each well. This was incubated at room temperature overnight on the orbital shaker. […]

[2] = biological target: KOP (Homo sapiens, UniProt P41145); assay: cAMP assay with naloxone in HEK-KOP cells; assay type: cell-based; settings: naloxone 100 μM/well; for Mean cAMP response (FIG. 14): HEK-KOP, naloxone assay, peptide at approximate IC80; for Naloxone reversal of cAMP inhibition through KOP: p<0.01
Sequence of KOP (P41145 whole entry): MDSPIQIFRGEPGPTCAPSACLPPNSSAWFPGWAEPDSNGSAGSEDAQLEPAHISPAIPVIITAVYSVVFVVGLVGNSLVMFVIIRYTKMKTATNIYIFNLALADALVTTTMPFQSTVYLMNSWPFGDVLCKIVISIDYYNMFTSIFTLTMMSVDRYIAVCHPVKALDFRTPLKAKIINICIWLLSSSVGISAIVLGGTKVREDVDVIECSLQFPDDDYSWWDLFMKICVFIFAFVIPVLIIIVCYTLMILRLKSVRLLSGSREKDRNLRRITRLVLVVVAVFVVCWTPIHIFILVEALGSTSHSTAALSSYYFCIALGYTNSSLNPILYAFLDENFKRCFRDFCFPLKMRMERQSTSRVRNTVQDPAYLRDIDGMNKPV
Method: The preparation of buffers, cAMP standard curve, bead solutions were carried out identically to the agonist assay.
Forskolin had been optimised at 50 μM/well. Thus, the 25 mM stocks were used to prepare 300 μL of 0.3 mM Forskolin. The concentration of Forskolin prepared was 6 times the required concentration in the well to account for further dilution in the well. Forskolin solution was then made from this and used to dilute the drug solutions.
Approximate IC80 values were used for DP-7-11 and DP-7-12 to determine the ability of naloxone to reverse agonist inhibitory effect.
The desired concentration of naloxone was 100 μM/well. Thus, 100 μL of 600 μM naloxone was made up from 100 mM stock. This was 6 times the desired in-well concentration to account for further dilution in the well by Forskolin, peptide, cells and acceptor bead solutions.
Stimulation buffer was added to the 0.3 mM Forskolin solution to prepare the Forskolin only treatment solution as the positive control. Stimulation buffer used as the negative control.
The DP series compounds were assayed as follows: The different cAMP standard solutions (3 μL/well) were plated in duplicate. Naloxone solution was then plated (1 μL/well) for each treatment (DP-7-11, DP-7-12, Forskolin only and stimulation buffer) in triplicate. In the same way, stimulation buffer was plated (1 μL/well) for the same number of wells. This made up two sets of wells, antagonist and non-antagonist. Following this, the acceptor bead and cell mixture (3 μL/well) was added to the treatment wells. The plates were then covered and centrifuged at 280 g for 30 seconds before incubation on an orbital shaker for 30 minutes at room temperature. The acceptor bead mixture (3 μL/well) was then added to the cAMP standard curve wells, whilst the drug mixed with Forskolin solutions (3 μL/well) were added to the respective treatment wells in triplicate. Again, the plates were centrifuged at 280 g for 30 seconds, then covered and incubated on the orbital shaker for another 30 minutes. Finally, the donor bead mixture (10 μL/well) was added to each well. This was incubated at room temperature overnight on the orbital shaker.
The Ensight® Multimode Plate Reader was used to quantify the fluorescence units of each plate. Before reading, each plate was centrifuged at 280 g for 30 seconds. Using GraphPad Prism7® Software, cAMP concentrations were determined from the fluorescence data by fit spline/LOWESS analysis. The cAMP standard curve was used for interpolation at this point. The cAMP concentrations were then normalized to the highest cAMP concentration recorded and analyzed by one-way ANOVA for multiple comparisons. This analysis was corrected for multiple comparisons using Bonferroni. […]

[3] = concentration-response curve, % cAMP

Compound	IC50 [1] [nM]	IC80 [1] [nM]	Maximum cAMP response, HEK-DOP [1, 3] [%]	Minimum cAMP response, HEK-DOP [1, 3] [%]	Mean cAMP response (FIG. 14) [2] [%]	Naloxone reversal of cAMP inhibition through KOP [2]	Potency at DOP relative to KOP ([1]; cAMP IC50 DOP vs KOP)
CC1(C)CNC(=O)C[C@H](C(=O)N[C@@H](CCCNC(=N)N)C(=O)N[C@@H](CCCNC(=N)N)C(N)=O)NC(=O)[C@H](Cc2ccccc2)NC(=O)CNC(=O)[C@@H](NC(=O)[C@@H](N)Cc2ccc(O)cc2)CSS1 [DP-7-11, c(Tyr-SSa-Gly-Phe-D(Asp)-Arg-Arg)]	1.83	24.1	93.79	23.13	56.14	reversed by naloxone	–
CC1(C)CNC(=O)C[C@@H](NC(=O)[C@@H](N)Cc2ccc(O)cc2)C(=O)NCC(=O)N[C@@H](Cc2ccccc2)C(=O)N[C@H](C(=O)N[C@@H](CCCNC(=N)N)C(=O)N[C@@H](CCCNC(=N)N)C(N)=O)CSS1 [DP-7-12, c(Tyr-D(Asp)-Gly-Phe-SSa-Arg-Arg)] (H-Y[dD]GFCRR-NH2; linker 2-5 via NHCH2CMe2S)	0.608	2.72	14.03	–	52.40	reversed by naloxone	ten times
